Test results as given in patent publication US9126999B2, “Tetrahydropyrazolopyrimidine compounds” (EISAI R&D MANAGEMENT CO., LTD., priority 2012, dated 2015).

Key:
Human TLR7/8 = system: T1, Human TLR7/8; experiment: Human PBMC cell-based assay, RNA-Ig (SL4-Ig) stimulus, cytokine ELISA; conditions: Human PBMC IL-6 Inhibition (SL4-Ig Ligand); read-out: Human PBMC IC50
T1 construct: IC50; other: Hu PBMC; ligand RNA-Ig; analyte IL-6; analyte TNFα; ligand R848; IC50 against the RNA-Ig TLR7/8 stimulus; cytokine responses to RNA-Ig complexes in vitro; potency against the RNA-Ig TLR7/8 stimulus versus HCQ
Experimental: Briefly, 25 ml blood was diluted with 15 ml PBS (without Ca^2+, Mg^2+) in a 50 ml conical tube, and 12 ml Histopaque was underlaid using a spinal needle. Tubes were centrifuged for 45 minutes at 1200 rpm (350×g), and PBMC were collected from the buffy coat. Cells were then washed twice in PBS, and red blood cells were lysed by suspension in 5 ml ammonium chloride solution (1× Red Blood Cell Lysis Buffer, eBioscience) for 5 minutes at room temperature.
Antagonist compounds solubilized and serial diluted in 100% DMSO were added in triplicate to cells to yield a final concentration of 0.1% DMSO (v/v). Hydroxychloroquine (Acros Organics) solubilized and serial diluted in PBS was added in triplicate to cells. […] The resulting “RNA-Ig” stimulus was incubated at room temperature for 15-30 minutes before adding to cells. PBMC were incubated with the various TLR agonists for 20 hours at 37° C., 5% CO2. Cell culture supernatants were collected, and levels of various human cytokines were assessed as indicated by standard ELISA procedure according to the manufacturer's recommended protocol (BD Biosciences, Inc., San Diego, Calif.).

Mouse TLR7 [1] = molecular target: T2, Mouse TLR7 (Mus musculus, UniProt P58681); experiment: Mouse spleen cell-based assay, R848 stimulus, IL-6 ELISA; conditions: Mouse Splenocyte IL-6 Inhibition (R848 Ligand); read-out: Mouse Splenocyte IC50
T2 construct: endogenous in cells; host or cells: female BALB/c mice, in vivo
T2 sequence (P58681 27-1050): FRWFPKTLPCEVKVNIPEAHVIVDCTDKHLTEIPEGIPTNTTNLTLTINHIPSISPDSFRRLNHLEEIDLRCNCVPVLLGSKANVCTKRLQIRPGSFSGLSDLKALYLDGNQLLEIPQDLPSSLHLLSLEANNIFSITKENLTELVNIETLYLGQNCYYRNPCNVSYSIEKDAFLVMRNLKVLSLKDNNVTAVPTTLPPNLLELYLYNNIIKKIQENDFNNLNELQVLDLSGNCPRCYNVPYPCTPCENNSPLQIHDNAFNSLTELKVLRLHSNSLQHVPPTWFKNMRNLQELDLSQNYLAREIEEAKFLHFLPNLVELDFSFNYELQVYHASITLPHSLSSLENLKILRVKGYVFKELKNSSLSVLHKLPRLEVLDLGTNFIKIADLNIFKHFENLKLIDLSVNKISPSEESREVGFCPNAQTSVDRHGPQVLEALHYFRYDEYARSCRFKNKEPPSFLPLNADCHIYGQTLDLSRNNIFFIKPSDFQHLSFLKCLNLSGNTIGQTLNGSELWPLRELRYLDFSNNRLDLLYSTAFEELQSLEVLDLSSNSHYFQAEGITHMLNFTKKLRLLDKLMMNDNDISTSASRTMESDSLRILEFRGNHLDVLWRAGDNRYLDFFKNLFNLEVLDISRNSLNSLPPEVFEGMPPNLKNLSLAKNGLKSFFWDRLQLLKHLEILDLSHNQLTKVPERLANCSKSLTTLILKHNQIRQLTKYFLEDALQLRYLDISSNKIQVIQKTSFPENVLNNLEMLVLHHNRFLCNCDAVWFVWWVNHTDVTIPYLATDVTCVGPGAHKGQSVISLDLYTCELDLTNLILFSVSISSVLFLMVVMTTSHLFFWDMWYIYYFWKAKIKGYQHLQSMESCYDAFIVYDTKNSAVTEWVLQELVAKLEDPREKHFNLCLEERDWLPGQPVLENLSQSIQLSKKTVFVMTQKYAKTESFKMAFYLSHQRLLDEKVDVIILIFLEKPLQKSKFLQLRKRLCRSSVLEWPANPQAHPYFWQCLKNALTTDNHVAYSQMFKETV
Experimental: Spleens were harvested from female BALB/c mice (Jackson Labs, Bar Harbor, Me.) euthanized by CO2. A single cell suspension was obtained by passing spleens through a 40 μm nylon cell strainer. Cells were washed twice with 50 ml PBS (Mediatech, Inc., Manassas, Va.) and red blood cells were lysed in 5 ml RBC Lysis buffer (eBioscience, Inc., San Diego, Calif.) for 5 minutes at room temperature. Cells were washed twice more in PBS and finally resuspended in supplemented RPMI-1640 at 2.5×10^6 cells/ml. Cells were plated at 100 μl/well (2.5×10^5 cells/well) in 96-well tissue culture treated plates (Falcon). Serial dilutions of compounds solubilized in 100% DMSO were added in triplicate to cells to yield a final concentration of 0.1% DMSO. Cells were incubated with compound for 30 minutes at 37° C., 5% CO2 before adding 100 μl/well of 740 nM R848 (Resiquimod; GLSynthesis, Worcester, Mass.) in complete media for a final concentration of 370 nM R848. Cells were incubated for 20 hours at 37° C., 5% CO2. Culture supernatants were collected, and levels of IL-6 were assessed by standard ELISA procedure according to the manufacturer's recommended protocol (BD Biosciences, Inc., San Diego, Calif.).

Mouse TLR7 [2] = molecular target: T2, Mouse TLR7; experiment: Short-term in vivo (STIV) assay: plasma IL-6 after s.c. R848
Experimental: Figure Legend: Female BALB/c mice were dosed by oral gavage with Vehicle alone (0.5% aqueous methyl-cellulose) or compound ER-892887 formulated in Vehicle at 100 mg/kg or 300 mg/kg. At 13 or 24 hours following oral dosing, mice were injected subcutaneously with 15 ug R848 to stimulate TLR7. Blood plasma was collected by cardiac puncture, and the IL-6 level at 1.5 hours after TLR7 stimulation was then assessed by standard ELISA procedure. Percent suppression indicated is relative to IL-6 induction following Vehicle control dosing. Statistical significance was determined by Mann-Whitney test.
To assess compound potency in vivo against mouse TLR7, a short-term in vivo (STIV) assay was utilized. Briefly, mice were orally dosed with compounds and at various time points afterwards were injected subcutaneously with agonist R848 to stimulate TLR7. The plasma IL-6 level following R848 stimulation was then measured by ELISA to assess compound potency and duration-of-action. […] Therefore, the activity of compounds in the STIV assay can be confidently attributed to their modulation of the TLR7 pathway. A single oral dose of ER-892887 at 300 mg/kg suppresses the R848/TLR7/IL-6 pathway in vivo by 80-90% for at least 24 hours (see FIG. 1).
Six to eight week old female BALB/c mice (Jackson Labs, Bar Harbor, Me.) were dosed by oral gavage in 200 ul volume with antagonist compounds formulated in 0.5% aqueous methyl-cellulose (Sigma, St. Louis, Mo.). At various time points afterwards, mice were injected subcutaneously (s.c.) in 100 ul volume with 15 ug R848 (Resiquimod; GLSynthesis, Worcester, Mass.) to stimulate TLR7. Blood plasma was collected by cardiac puncture, and levels of IL-6 at 1.5 hours after TLR7 stimulation were then assessed by standard ELISA procedure according to the manufacturer's recommended protocol (R&D Systems).

[3] = time point 6 hr, dose 33 mg/kg oral
[4] = time point 13 hr, dose 33 mg/kg oral
[5] = time point 13 hr, dose 100 mg/kg oral
[6] = time point 13 hr, dose 300 mg/kg oral
[7] = time point 24 hr, dose 100 mg/kg oral
[8] = time point 24 hr, dose 300 mg/kg oral
[9] = time point 6 hr, dose 100 mg/kg oral
[10] = time point 6 hr, dose 300 mg/kg oral

COc1ccc([C@H]2C[C@@H](C(F)F)n3nc(-c4ccc(C(=O)N5CCNCC5)cc4)cc3N2)cc1OC [ER-895303]
IC50 (Human TLR7/8): 23 nM | IC50 (Mouse TLR7 [1]): 270 nM | % Suppression vs. Vehicle (Mouse TLR7 [2]; [3]): 92% | % Suppression vs. Vehicle (Mouse TLR7 [2]; [4]): 0% | % Suppression vs. Vehicle (Mouse TLR7 [2]; [5]): 18% | % Suppression vs. Vehicle (Mouse TLR7 [2]; [6]): 90% | % Suppression vs. Vehicle (Mouse TLR7 [2]; [7]): 0% | % Suppression vs. Vehicle (Mouse TLR7 [2]; [8]): 60%

5-(3,4-dimethoxyphenyl)-2-(6-methyl-1,2,3,6-tetrahydropyridin-4-yl)-7-(trifluoromethyl)-4,5,6,7-tetrahydropyrazolo[1,5-a]pyrimidine hydrochloride and 5-(3,4-dimethoxyphenyl)-2-(2-methyl-1,2,3,6-tetrahydropyridin-4-yl)-7-(trifluoromethyl)-4,5,6,7-tetrahydropyrazolo[1,5-a]pyrimidine hydrochloride [ER-896993]
IC50 (Human TLR7/8): 38 nM

COc1ccc(C2CC(C(F)(F)F)n3nc(C(=O)N4CCNCC4)cc3N2)cc1OC (centres unmarked) [ER-896452]
IC50 (Human TLR7/8): 49 nM

COc1ccc(C2CC(C(F)(F)F)n3nc(-c4ccc(C(=O)NC5CCNC5)nc4)cc3N2)cc1OC (centres unmarked) [ER-895809]
IC50 (Human TLR7/8): 21 nM

COc1ccc(C2CC(C(F)(F)F)n3nc(-c4cccc(C(=O)N5CCNCC5)c4)cc3N2)cc1OC (centres unmarked) [ER-896388]
IC50 (Human TLR7/8): 122 nM

COc1ccc(C2CC(C(F)F)n3nc(-c4ccc(C(=O)N5CCNCC5)cc4)cc3N2)cc1OC (racemic) [ER-894466]
IC50 (Human TLR7/8): 43 nM | IC50 (Mouse TLR7 [1]): 420 nM

COc1ccc(C2CC(C(F)(F)F)n3nc(-c4cccc(C(=O)NC5CCNC5)c4)cc3N2)cc1OC (centres unmarked) [ER-895811]
IC50 (Human TLR7/8): 111 nM

Cc1nn(C)cc1[C@@H]1C[C@H](C(F)(F)F)n2nc(-c3ccc4nn(C)cc4c3)cc2N1 [ER-893990]
IC50 (Human TLR7/8): 4460 nM | IC50 (Mouse TLR7 [1]): 3920 nM

COc1ccc(C2CC(C(F)(F)F)n3nc(-c4ccc(C(=O)N5CCNCC5)nc4)cc3N2)cc1OC (centres unmarked) [ER-896133]
IC50 (Human TLR7/8): 64 nM

COc1ccc([C@@H]2C[C@H](C(F)F)n3nc(-c4ccc(C(=O)N5CCNCC5)cc4)cc3N2)cc1OC [ER-895302]
IC50 (Human TLR7/8): 25 nM | IC50 (Mouse TLR7 [1]): 120 nM | % Suppression vs. Vehicle (Mouse TLR7 [2]; [3]): 93% | % Suppression vs. Vehicle (Mouse TLR7 [2]; [9]): 99% | % Suppression vs. Vehicle (Mouse TLR7 [2]; [10]): 99% | % Suppression vs. Vehicle (Mouse TLR7 [2]; [4]): 14% | % Suppression vs. Vehicle (Mouse TLR7 [2]; [5]): 16% | % Suppression vs. Vehicle (Mouse TLR7 [2]; [6]): 91% | % Suppression vs. Vehicle (Mouse TLR7 [2]; time point 24 hr, dose 33 mg/kg oral): 30% | % Suppression vs. Vehicle (Mouse TLR7 [2]; [7]): 0% | % Suppression vs. Vehicle (Mouse TLR7 [2]; [8]): 37%

COc1ccc([C@H]2C[C@@H](C(F)(F)F)n3nc(C4CCNCC4)cc3N2)cc1OC [ER-885682]
IC50 (Human TLR7/8): 357 nM

COc1ccc(C2CC(C(F)(F)F)n3nc(-c4ccc(C(=O)NC5CCCNC5)nc4)cc3N2)cc1OC (centres unmarked) [ER-896135]
IC50 (Human TLR7/8): 18 nM

COc1ccc([C@@H]2C[C@H](C(F)(F)F)n3nc(C4CCNCC4)cc3N2)cc1OC [ER-885681]
IC50 (Human TLR7/8): 173 nM | % Suppression vs. Vehicle (Mouse TLR7 [2]; time point 3 hr, dose 33 mg/kg oral): 90% | % Suppression vs. Vehicle (Mouse TLR7 [2]; time point 3 hr, dose 100 mg/kg oral): 98% | % Suppression vs. Vehicle (Mouse TLR7 [2]; time point 3 hr, dose 300 mg/kg oral): 99% | % Suppression vs. Vehicle (Mouse TLR7 [2]; [3]): 42% | % Suppression vs. Vehicle (Mouse TLR7 [2]; [9]): 81% | % Suppression vs. Vehicle (Mouse TLR7 [2]; [10]): 96% | % Suppression vs. Vehicle (Mouse TLR7 [2]; [4]): 0% | % Suppression vs. Vehicle (Mouse TLR7 [2]; [5]): 7% | % Suppression vs. Vehicle (Mouse TLR7 [2]; [6]): 50%

COc1ccc(C2CC(C(F)(F)F)n3nc(C4CCNCC4)cc3N2)cc1OC (centres unmarked) [ER-887084]
IC50 (Human TLR7/8): 101 nM

COc1ccc(C2CC(C(F)(F)F)n3nc(-c4ccc(C(=O)NC5CCNC5)nc4)cc3N2)cc1OC (centres unmarked) [ER-895810]
IC50 (Human TLR7/8): 27 nM

COc1ccc(C2CC(C(F)(F)F)n3nc(-c4ccc(C(=O)NC5CCNCC5)nc4)cc3N2)cc1OC (centres unmarked) [ER-896134]
IC50 (Human TLR7/8): 12 nM
